# From US20080015236A1, “METHOD FOR PROMOTING MYOCARDIAL REGENERATION AND USES THEREOF” (priority 2006, published 2008)
# Entries after “also recorded” stand apart in the source; their conditions may differ.
# Test system: region of myocardium that includes a myocardial infarction
# Experiment: Occlusion of the left anterior descending artery (myocardial infarction) in rats, daily intraperitoneal GM284, survival and histological analysis
# Format: in vivo, Sprague Dawley rats
# Excerpt: The left anterior descending artery (“LAD”) of 36 male adult Sprague Dawley rats weighing between 250 and 270 grams was occluded by placement of a ligature around the LAD and pulling it taught. The ligature was left in place to create a chronic ischemic area (myocardial infarction) distal to the occlusion. Following the closure of the chest and evacuation of the extra-pulmonary air to reverse the surgery-induced pneumothorax, the rats were returned to their cages for recovery, where they had ad libitum access to water and food for the duration of the experiment. Immediately following surgery the rats received the analgesic Buprenex at a dose of 1.5 mg/kg subcutaneously every 12 hours for the first 72 hours, and then on an as-needed basis.
# The GM284 was dissolved to a final concentration of 5 mg/kg in phosphate buffered saline (“PBS”); 10 μM stock solution of GM284 in dimethyl sulfoxide (“DMSO”) was diluted in PBS. The vehicle was 250 μl of DMSO into 10 ml PBS.
# Postsurgically, the rats were randomly assigned into six (6) experimental groups (A through F) with 6 animals in each group (n=36). “Vehicle” groups A, C and E received daily intraperitoneal injections of vehicle; and, “treatment” groups B, D, and F were treated with intraperitoneal injections of GM284.
# Animals in treatment groups B, D, and F received daily intraperitoneal injections of GM284 at 5 mg/kg; and, animals in vehicle groups A, C and E received daily intraperitoneal injections of only the vehicle in which the GM284 was dissolved.
# Animals in vehicle group A and treatment group B were treated for 2 weeks after LAD ligation and sacrificed.
# Animals in vehicle group C and treatment group D were treated for 2 weeks following LAD ligation. Thereafter, the vehicle or GM284 injections were withdrawn and the animals were allowed to survive for an additional 2 weeks prior to sacrifice.
# Animals in vehicle group E treatment group F were treated daily for 30 days following LAD ligation and then sacrificed.
# Prior to sacrifice, the animals were anesthetized the hearts were harvested and processed for histological analysis by submersion-fixing in 4% paraformaldehyde at 4° C. overnight, followed by dehydration and embedding in paraffin. Eight-micra tissue sections were cut through the infarcted area and stained with H&E and trichrome. The histological sections were viewed by light microscopy, by a reviewer blind to the treatment groups, and evaluated for: • 1) the size of the infarct; • 2) the presence of viable cardiac myocytes; and, • 3) the extent of collateral vascularity.
# [1] = two weeks after LAD occlusion, daily GM284 5 mg/kg i.p., versus vehicle, FIG. 2b
smiles,measurement,setting,value
CCC(C)(C)C(=O)C(=O)N1CCC[C@H]1c1nnc([C@@H]2CCCN2C(=O)C(=O)C(C)(C)CC)o1 [GM284],scarring / fibrosis (trichrome stain),"four weeks after LAD occlusion, daily treatment (group F), vehicle: extensive area of infarction, FIG. 3a",virtually no scarring; also recorded: minimal fibrosis
same,cardiac histology (H&E stain),"four weeks after LAD occlusion, daily treatment (group F), vehicle: extensive fibrosis, FIG. 3c",normal cardiac histology
same,histological appearance of the cardiac tissue after withdrawal of treatment,"treated two weeks, survived additional two weeks without treatment (group D), compared with animals analyzed at cessation of treatment",did not significantly alter the histological appearance
same,survival over the length of the study,"treatment groups B, D, F, 5 mg/kg daily intraperitoneal after LAD ligation, vehicle group mortality 25%",100%
same,intramural vascularity (histology),[1],increase in the intramural vascularity
same,viable myocardial cells (histology),[1],increase in viable myocardial cells
same,extent of collateral vascularity (histology),"two weeks after LAD occlusion, daily GM284 5 mg/kg i.p., rare in vehicle treated tissue, FIG. 2b",numerous collateral vessels
